What was measured:
[1] = target: Serine/threonine-protein kinase PAK 4 (Homo sapiens) (UniProt O96013); experiment: Inhibition of PAK4 at 10 uM by HotSpot assay relative to control
[2] = target: Serine/threonine-protein kinase PLK1 (Homo sapiens) (UniProt P53350); experiment: Inhibition of PLK1 at 10 uM by HotSpot assay relative to control
[3] = target: Tyrosine-protein kinase JAK1 (Homo sapiens) (UniProt P23458); experiment: Inhibition of JAK1 at 10 uM by HotSpot assay relative to control
[4] = target: Proto-oncogene tyrosine-protein kinase ROS (Homo sapiens) (UniProt P08922); experiment: Inhibition of ROS1 at 10 uM by HotSpot assay relative to control
[5] = target: Tyrosine-protein kinase Fyn (Homo sapiens) (UniProt P06241); experiment: Inhibition of FYN at 10 uM by HotSpot assay relative to control
[6] = target: Proto-oncogene tyrosine-protein kinase receptor Ret (Homo sapiens) (UniProt P07949); experiment: Inhibition of RET at 10 uM by HotSpot assay relative to control
[7] = target: Mast/stem cell growth factor receptor Kit (Homo sapiens) (UniProt P10721); experiment: Inhibition of c-kit at 10 uM by HotSpot assay relative to control
[8] = target: Death-associated protein kinase 1 (Homo sapiens) (UniProt P53355); experiment: Inhibition of DAPK1 at 10 uM by HotSpot assay relative to control
[9] = target: Tyrosine-protein kinase ABL1 (Homo sapiens) (UniProt P00519); experiment: Inhibition of Abl at 10 uM by HotSpot assay relative to control
[10] = target: Serine/threonine-protein kinase Chk1 (Homo sapiens) (UniProt O14757); experiment: Inhibition of CHEK1 at 10 uM by HotSpot assay relative to control
[11] = target: Macrophage-stimulating protein receptor (Homo sapiens) (UniProt Q04912); experiment: Inhibition of MST1R at 10 uM by HotSpot assay relative to control
[12] = target: RAF proto-oncogene serine/threonine-protein kinase (Homo sapiens) (UniProt P04049); experiment: Inhibition of RAF1 at 10 uM by HotSpot assay relative to control
[13] = target: Casein kinase I isoform epsilon (Homo sapiens) (UniProt P49674); experiment: Inhibition of CK1epsilon at 10 uM by HotSpot assay relative to control
Sequence of Casein kinase I isoform epsilon (Homo sapiens) (P49674 whole entry, looked up, canonical isoform): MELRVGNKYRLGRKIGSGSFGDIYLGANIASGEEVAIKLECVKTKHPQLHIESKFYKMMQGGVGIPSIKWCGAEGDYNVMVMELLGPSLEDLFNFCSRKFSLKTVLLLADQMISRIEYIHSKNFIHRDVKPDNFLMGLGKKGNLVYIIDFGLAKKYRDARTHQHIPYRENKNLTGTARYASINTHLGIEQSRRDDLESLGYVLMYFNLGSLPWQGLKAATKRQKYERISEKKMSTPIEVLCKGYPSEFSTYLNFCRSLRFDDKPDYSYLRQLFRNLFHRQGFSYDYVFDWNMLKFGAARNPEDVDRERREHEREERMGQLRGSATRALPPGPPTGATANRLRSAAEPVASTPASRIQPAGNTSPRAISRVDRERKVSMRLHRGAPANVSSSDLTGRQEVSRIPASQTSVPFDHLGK

[14] = system: RAC-alpha serine/threonine-protein kinase (Homo sapiens), P31749 [S473D]; experiment: Inhibition of AKT1 dPH, S473D mutant at 10 uM by HotSpot assay relative to control
Sequence of RAC-alpha serine/threonine-protein kinase (Homo sapiens), P31749 [S473D] (P31749 whole entry S473D): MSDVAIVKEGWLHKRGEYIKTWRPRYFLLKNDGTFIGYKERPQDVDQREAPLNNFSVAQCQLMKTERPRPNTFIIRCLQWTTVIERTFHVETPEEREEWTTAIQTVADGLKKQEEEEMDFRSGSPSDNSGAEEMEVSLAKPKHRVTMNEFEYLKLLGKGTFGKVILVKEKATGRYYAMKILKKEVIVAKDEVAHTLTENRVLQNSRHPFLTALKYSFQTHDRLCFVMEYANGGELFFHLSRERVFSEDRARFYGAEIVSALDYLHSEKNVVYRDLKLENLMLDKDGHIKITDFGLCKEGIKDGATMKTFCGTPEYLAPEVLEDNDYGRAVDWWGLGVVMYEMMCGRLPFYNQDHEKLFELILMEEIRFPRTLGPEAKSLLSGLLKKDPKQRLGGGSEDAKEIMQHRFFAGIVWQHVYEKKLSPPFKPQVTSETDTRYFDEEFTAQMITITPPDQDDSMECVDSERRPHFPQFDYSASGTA

[15] = target: Tyrosine-protein kinase Lyn (Homo sapiens) (UniProt P07948); experiment: Inhibition of LYN at 10 uM by HotSpot assay relative to control
Sequence of Tyrosine-protein kinase Lyn (Homo sapiens) (P07948 2-512 limits assumed): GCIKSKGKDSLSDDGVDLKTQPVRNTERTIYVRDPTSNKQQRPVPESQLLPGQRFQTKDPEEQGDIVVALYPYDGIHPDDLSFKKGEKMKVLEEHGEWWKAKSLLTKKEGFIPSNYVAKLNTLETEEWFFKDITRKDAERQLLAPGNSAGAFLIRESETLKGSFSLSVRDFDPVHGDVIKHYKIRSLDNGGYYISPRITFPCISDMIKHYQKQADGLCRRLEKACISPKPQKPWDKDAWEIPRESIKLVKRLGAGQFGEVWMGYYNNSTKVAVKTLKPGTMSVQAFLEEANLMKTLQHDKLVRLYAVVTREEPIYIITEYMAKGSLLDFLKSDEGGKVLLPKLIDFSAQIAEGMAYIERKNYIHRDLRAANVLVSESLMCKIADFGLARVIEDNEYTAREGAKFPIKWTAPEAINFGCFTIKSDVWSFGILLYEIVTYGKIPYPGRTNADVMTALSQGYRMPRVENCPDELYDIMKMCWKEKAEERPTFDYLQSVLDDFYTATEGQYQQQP

[16] = target: Aurora kinase A (Homo sapiens) (UniProt O14965); experiment: Inhibition of Aurora-A at 10 uM by HotSpot assay relative to control
[17] = target: Mitogen-activated protein kinase 14 (Homo sapiens) (UniProt Q16539); experiment: Inhibition of p38-alpha at 10 uM by HotSpot assay relative to control
[18] = target: Inhibitor of nuclear factor kappa-B kinase subunit alpha (Homo sapiens) (UniProt O15111); experiment: Inhibition of IKK-alpha at 10 uM by HotSpot assay relative to control
[19] = target: Epidermal growth factor receptor (Homo sapiens) (UniProt P00533); experiment: Inhibition of EGFR at 10 uM by HotSpot assay relative to control
[20] = target: Focal adhesion kinase 1 (PTK2/FAK) (Homo sapiens) (UniProt Q05397); experiment: Inhibition of PTK2 at 10 uM by HotSpot assay relative to control
[21] = target: Mitogen-activated protein kinase 8 (Homo sapiens) (UniProt P45983); experiment: Inhibition of JNK1-alpha-1 at 10 uM by HotSpot assay relative to control
[22] = target: Tyrosine-protein kinase Lck (Homo sapiens) (UniProt P06239); experiment: Inhibition of LCK at 10 uM by HotSpot assay relative to control
[23] = target: Homeodomain-interacting protein kinase 1 (Homo sapiens) (UniProt Q86Z02); experiment: Inhibition of HIPK1 at 10 uM by HotSpot assay relative to control
[24] = target: Ribosomal protein S6 kinase beta-1 (Homo sapiens) (UniProt P23443); experiment: Inhibition of p70S6K at 10 uM by HotSpot assay relative to control
[25] = target: Vascular endothelial growth factor receptor 1 (Homo sapiens) (UniProt P17948); experiment: Inhibition of FLT1 at 10 uM by HotSpot assay relative to control
[26] = target: Proto-oncogene tyrosine-protein kinase Src (Homo sapiens) (UniProt P12931); experiment: Inhibition of c-Src at 10 uM by HotSpot assay relative to control
Sequence of Proto-oncogene tyrosine-protein kinase Src (Homo sapiens) (P12931 2-536 limits assumed): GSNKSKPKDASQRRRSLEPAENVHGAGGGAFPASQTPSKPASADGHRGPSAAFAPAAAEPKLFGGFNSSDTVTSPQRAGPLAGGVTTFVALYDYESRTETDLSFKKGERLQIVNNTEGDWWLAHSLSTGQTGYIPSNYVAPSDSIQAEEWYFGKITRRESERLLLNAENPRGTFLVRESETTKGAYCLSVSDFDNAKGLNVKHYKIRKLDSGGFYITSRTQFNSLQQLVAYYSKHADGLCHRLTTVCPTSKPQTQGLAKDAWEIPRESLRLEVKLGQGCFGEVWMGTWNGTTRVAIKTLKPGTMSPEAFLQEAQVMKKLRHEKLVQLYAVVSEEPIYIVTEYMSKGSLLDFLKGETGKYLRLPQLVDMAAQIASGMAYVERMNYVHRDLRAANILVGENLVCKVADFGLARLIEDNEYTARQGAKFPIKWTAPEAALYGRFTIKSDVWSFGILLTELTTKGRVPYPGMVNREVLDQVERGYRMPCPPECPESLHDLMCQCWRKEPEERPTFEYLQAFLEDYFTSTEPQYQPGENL

[27] = target: Serine/threonine-protein kinase 26 (Homo sapiens) (UniProt Q9P289); experiment: Inhibition of MST4 at 10 uM by HotSpot assay relative to control
[28] = target: Serine/threonine-protein kinase pim-1 (Homo sapiens) (UniProt P11309); experiment: Inhibition of PIM1 at 10 uM by HotSpot assay relative to control
[29] = target: Serine/threonine-protein kinase B-raf (Homo sapiens) (UniProt P15056); experiment: Inhibition of BRAF at 10 uM by HotSpot assay relative to control
[30] = target: Insulin receptor (Homo sapiens) (UniProt P06213); experiment: Inhibition of IR at 10 uM by HotSpot assay relative to control
[31] = target: Rho-associated protein kinase 1 (Homo sapiens) (UniProt Q13464); experiment: Inhibition of ROCK-I at 10 uM by HotSpot assay relative to control
[32] = target: Muscle, skeletal receptor tyrosine-protein kinase (Homo sapiens) (UniProt O15146); experiment: Inhibition of MUSK at 10 uM by HotSpot assay relative to control
[33] = target: Cyclin-dependent kinase 1/cyclin B1 (Homo sapiens) (UniProt P06493+P14635); experiment: Inhibition of CDK1/Cyclin B at 10 uM by HotSpot assay relative to control; format: protein-complex assay
[34] = target: Tyrosine-protein kinase Yes (Homo sapiens) (UniProt P07947); experiment: Inhibition of YES at 10 uM by HotSpot assay relative to control
Sequence of Tyrosine-protein kinase Yes (Homo sapiens) (P07947 2-543 limits assumed): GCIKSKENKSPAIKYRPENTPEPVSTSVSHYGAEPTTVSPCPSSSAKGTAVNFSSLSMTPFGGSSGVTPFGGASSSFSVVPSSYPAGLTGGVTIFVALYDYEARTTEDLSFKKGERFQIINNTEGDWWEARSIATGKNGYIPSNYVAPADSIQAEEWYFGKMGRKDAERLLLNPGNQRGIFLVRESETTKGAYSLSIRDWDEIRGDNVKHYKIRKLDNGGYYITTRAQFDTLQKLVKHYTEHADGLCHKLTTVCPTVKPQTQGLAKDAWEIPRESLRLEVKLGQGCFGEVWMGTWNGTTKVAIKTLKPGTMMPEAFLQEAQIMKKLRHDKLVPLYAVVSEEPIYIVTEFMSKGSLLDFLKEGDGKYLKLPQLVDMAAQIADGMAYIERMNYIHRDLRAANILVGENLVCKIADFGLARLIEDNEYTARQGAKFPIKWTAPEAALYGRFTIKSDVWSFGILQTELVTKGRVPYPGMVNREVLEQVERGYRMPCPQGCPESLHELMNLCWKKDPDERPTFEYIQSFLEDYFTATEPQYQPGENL

[35] = target: Protein kinase C alpha type (Homo sapiens) (UniProt P17252); experiment: Inhibition of PKCalpha at 10 uM by HotSpot assay relative to control
[36] = target: Vascular endothelial growth factor receptor 2 (Homo sapiens) (UniProt P35968); experiment: Inhibition of VEGFR2 at 10 uM by HotSpot assay relative to control
Sequence of Vascular endothelial growth factor receptor 2 (Homo sapiens) (P35968 whole entry): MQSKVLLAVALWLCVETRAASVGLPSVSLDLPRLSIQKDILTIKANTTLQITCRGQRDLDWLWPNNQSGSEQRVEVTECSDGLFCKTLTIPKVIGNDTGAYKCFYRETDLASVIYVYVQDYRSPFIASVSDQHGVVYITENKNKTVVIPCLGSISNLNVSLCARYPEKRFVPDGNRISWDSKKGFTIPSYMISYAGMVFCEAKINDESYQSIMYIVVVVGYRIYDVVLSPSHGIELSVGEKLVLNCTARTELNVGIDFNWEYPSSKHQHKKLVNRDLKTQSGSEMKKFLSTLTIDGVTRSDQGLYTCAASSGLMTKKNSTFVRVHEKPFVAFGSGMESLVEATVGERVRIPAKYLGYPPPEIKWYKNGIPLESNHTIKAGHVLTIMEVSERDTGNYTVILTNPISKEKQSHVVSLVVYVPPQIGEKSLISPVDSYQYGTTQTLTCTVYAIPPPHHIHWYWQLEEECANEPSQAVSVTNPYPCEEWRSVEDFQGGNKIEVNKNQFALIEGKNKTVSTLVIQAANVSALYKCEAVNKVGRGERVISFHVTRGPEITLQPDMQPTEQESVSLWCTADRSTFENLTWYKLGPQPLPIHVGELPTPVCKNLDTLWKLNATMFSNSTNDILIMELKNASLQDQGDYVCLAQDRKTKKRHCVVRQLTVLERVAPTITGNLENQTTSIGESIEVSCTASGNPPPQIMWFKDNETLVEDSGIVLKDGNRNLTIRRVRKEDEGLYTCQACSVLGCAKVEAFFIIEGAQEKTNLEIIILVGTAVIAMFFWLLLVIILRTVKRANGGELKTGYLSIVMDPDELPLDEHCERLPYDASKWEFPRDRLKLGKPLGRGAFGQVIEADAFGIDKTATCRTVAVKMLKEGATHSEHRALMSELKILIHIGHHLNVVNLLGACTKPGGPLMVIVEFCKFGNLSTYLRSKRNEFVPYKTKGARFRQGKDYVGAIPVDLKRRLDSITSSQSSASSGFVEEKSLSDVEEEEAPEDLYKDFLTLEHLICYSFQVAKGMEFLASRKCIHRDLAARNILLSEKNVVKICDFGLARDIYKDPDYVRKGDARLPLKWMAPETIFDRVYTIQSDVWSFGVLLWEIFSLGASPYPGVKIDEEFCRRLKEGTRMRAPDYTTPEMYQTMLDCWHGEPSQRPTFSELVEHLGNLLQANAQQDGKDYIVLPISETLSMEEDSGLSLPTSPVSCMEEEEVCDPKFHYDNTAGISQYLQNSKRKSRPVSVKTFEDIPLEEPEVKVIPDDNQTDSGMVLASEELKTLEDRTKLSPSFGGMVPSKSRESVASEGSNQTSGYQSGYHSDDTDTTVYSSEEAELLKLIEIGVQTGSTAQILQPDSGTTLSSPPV

[37] = target: Ephrin type-A receptor 1 (Homo sapiens) (UniProt P21709); experiment: Inhibition of EPHA1 at 10 uM by HotSpot assay relative to control
Sequence of Ephrin type-A receptor 1 (Homo sapiens) (P21709 whole entry): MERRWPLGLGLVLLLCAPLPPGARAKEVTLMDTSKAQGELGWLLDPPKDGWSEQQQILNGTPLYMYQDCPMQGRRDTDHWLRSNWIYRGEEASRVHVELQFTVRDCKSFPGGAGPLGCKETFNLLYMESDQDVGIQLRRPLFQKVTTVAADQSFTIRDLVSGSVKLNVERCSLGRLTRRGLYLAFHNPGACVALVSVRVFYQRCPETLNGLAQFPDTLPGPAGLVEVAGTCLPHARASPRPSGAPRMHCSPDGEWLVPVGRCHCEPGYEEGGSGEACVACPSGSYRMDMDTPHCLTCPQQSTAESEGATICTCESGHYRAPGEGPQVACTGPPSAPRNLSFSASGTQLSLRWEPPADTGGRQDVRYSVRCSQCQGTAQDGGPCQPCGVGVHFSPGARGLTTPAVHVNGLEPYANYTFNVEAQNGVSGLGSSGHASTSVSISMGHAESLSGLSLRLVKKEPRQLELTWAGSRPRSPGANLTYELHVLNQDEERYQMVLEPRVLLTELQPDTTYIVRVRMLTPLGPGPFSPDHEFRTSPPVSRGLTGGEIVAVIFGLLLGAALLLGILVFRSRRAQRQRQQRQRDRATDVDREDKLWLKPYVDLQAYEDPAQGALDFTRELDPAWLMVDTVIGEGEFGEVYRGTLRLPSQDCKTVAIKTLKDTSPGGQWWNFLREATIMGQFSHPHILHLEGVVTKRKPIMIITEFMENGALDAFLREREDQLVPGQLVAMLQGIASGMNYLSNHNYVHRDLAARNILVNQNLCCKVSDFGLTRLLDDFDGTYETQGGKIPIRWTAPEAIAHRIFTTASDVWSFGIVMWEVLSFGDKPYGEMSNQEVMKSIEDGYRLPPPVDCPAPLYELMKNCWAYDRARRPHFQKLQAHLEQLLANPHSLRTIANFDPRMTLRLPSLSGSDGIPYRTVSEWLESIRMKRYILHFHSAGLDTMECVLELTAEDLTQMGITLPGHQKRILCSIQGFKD

[38] = target: DNA-dependent protein kinase catalytic subunit (Homo sapiens) (UniProt P78527); experiment: Inhibition of DNA-PK at 10 uM by HotSpot assay relative to control
[39] = target: Dual specificity mitogen-activated protein kinase kinase 1 (Homo sapiens) (UniProt Q02750); experiment: Inhibition of MEK1 at 10 uM by HotSpot assay relative to control
[40] = target: Tyrosine-protein kinase Fgr (Homo sapiens) (UniProt P09769); experiment: Inhibition of FGR at 10 uM by HotSpot assay relative to control
[41] = target: High affinity nerve growth factor receptor (Homo sapiens) (UniProt P04629); experiment: Inhibition of TRKA at 10 uM by HotSpot assay relative to control
[42] = target: Angiopoietin-1 receptor (Homo sapiens) (UniProt Q02763); experiment: Inhibition of TIE2 at 10 uM by HotSpot assay relative to control
[43] = target: Hepatocyte growth factor receptor (Homo sapiens) (UniProt P08581); experiment: Inhibition of c-MET at 10 uM by HotSpot assay relative to control
[44] = target: Tyrosine-protein kinase SYK (Homo sapiens) (UniProt P43405); experiment: Inhibition of SYK at 10 uM by HotSpot assay relative to control
[45] = target: Fibroblast growth factor receptor 1 (Homo sapiens) (UniProt P11362); experiment: Inhibition of FGFR1 at 10 uM by HotSpot assay relative to control

Cc1cc(O)cc(-c2nn(CC#N)cc2-c2cc(NC[C@H](C)O)nc(-c3cccnc3)n2)c1
inhibition [1]: 1.37%
inhibition [2]: 5.85%
inhibition [3]: 9.15%
inhibition [4]: 93.9%
inhibition [5]: -7.86%
inhibition [6]: 6.65%
inhibition [7]: 2.85%
inhibition [8]: -1.17%
inhibition [9]: 20.4%
inhibition [10]: 2.36%
inhibition [11]: 28.8%
inhibition [12]: 20.4%
inhibition [13]: 9.32%
inhibition [14]: -2.97%
inhibition [15]: -1.45%
inhibition [16]: 21.8%
inhibition [17]: 5.27%
inhibition [18]: 1.37%
inhibition [19]: -2.23%
inhibition [20]: 3.43%
inhibition [21]: 3.83%
inhibition [22]: 10.3%
inhibition [23]: -3.43%
inhibition [24]: 5.79%
inhibition [25]: -1.67%
inhibition [26]: 16.2%
inhibition [27]: -1.54%
inhibition [28]: 5.91%
inhibition [29]: 8.97%
inhibition [30]: 7.01%
inhibition [31]: 11.7%
inhibition [32]: -0.42%
inhibition [33]: 3.64%
inhibition [34]: -2.59%
inhibition [35]: 9.23%
inhibition [36]: -5.84%
inhibition [37]: 23.3%
inhibition [38]: 6.56%
inhibition [39]: -6.97%
inhibition [40]: 3.34%
inhibition [41]: -0.14%
inhibition [42]: 8.17%
inhibition [43]: 5.82%
inhibition [44]: 8.23%
inhibition [45]: -8.05%

Reference: ChEMBL document CHEMBL1153464
